Tests used:
CT26 colon carcinoma = assay: In vivo tumor efficacy, CT26 model, PF-06463922 with anti-PD-L1 (Example 2); design: species or system Balb/c mice; details: for Average tumor volume: anti-PD-L1 10 mg/kg i.p. every 3 days x3, PF-06463922 3 mg/kg orally once daily; for Effect on CT26 tumor growth: treatment started in tumors of 100-150 mm^3, compared with isotype
Source text: Both CT26 colon carcinoma and B16 melonoma cell lines have published mutanome and transcriptome data, with no known ALK fusion events or oncogenic mutations. Castle et al, BMC Genomics, 15:190 (13 Mar. 2014); Castle et al, CAN 11:3722 (11 Jan. 2012). […] The percentage of TGI was defined as 1-(Tumor volumnTreated/Tumor volumnisotype control)×100.
(§1) The CT26 colon carcinoma cell line was purchased from ATCC® CRL-2638™. B16-F10 (‘B16’) melonoma cell lines were purchased from ATCC® CRL-6475™. Cells were cultured in DMEM medium supplemented with 10% fetal bovine serum, and 100 I.U./mL penicillin/streptomycin at 37° C. in an atmosphere of 5% CO2 in air, and IMPACT-tested for pathogens at Research Animal Diagnostic Laboratory (RADIL) (Columbia, Mo.). Pathogen-free cells growing in an exponential growth phase were harvested and used for tumor inoculation.
(§2) Rat IgG2a isotype control were purchased from BioXcell (clone 2A3)(West Lebanon, N.H.).
(§3) For the second study, C57BL/6 mice were inoculated subcutaneously in the right lower flank with 0.1 ml of 1×10^6 B16 skin melanoma cells. When tumor bearing mice achieved a mean tumor volume of 100 to 150 mm^3, mice were randomly assigned to 1 of 4 treatment groups, n=10.

[1] = test system: CD3/CD28-stimulated effector cells (T cells from healthy donors' PBMCs); assay: T cell proliferation assay (3H thymidine incorporation), CD3/CD28-stimulated T cells; assay type: cell-based, human; details: for Thymidine incorporation(CPM): log[Agonist]
Source text: (§4) Briefly, human cells were isolated from healthy donors' PBMCs by using EasySep™ Human T Cell Enrichment Kit (Stemcell Technologies) according to manufacturer's instruction. […] Culture supernatants were collected on Day 2 or 3 for cytokine analysis. Plates were then harvested on DNA specific filter papers (Perkin Elmer) using Harvester96 (Tomtec Life Sciences). The radiolabeled filters were covered with beta scintillation liquid (Perkin Elmer) and read in Microbeta® counter plates (Perkin Elmer). ^3H Thymidine was pulsed on Day 2 for T cell proliferation assay.

activated T cells = assay: T cell viability, Cell-Titer Glo Luminescent Cell Viability Assay; assay type: cell-based, human; details: for Luciferase RLU (T cell viability): log[Agonist]
Method: as §4, with “instruction. […] Cells were cultured in RPMI 1640 medium supplemented with 10% FCS and 100 I.U./mL penicillin/streptomycin in humidified incubator at 37° C. with 5% CO2.” for “instruction.”, “assay. The impact by sunitinib and axitinib on T cell proliferation and viability were repeated as previously published (FIGS. 1A and 1B).” for “assay.”
Cell viability was measured by Cell-Titer Glo Luminescent Cell Viability Assay® (Promega, Madison). […] Table 4 below provides the Luciferase RLU values reflecting T cell viability for each of the respective inhibitors.

B16 skin melanoma = assay: In vivo tumor efficacy, B16 melanoma model, PF-06463922 with anti-PD-L1 (Example 2); design: species or system C57BL/6 mice; details: end of study (day 22 post tumor implant), n=10
Method: as §1, §2, §3

[2] = test system: peripheral blood mononuclear cells (PMBCs); details: published studies (Stehle et al. 2013); cited from earlier work

Row | SMILES | Thymidine incorporation(CPM) ([1]; μM: 0) | Thymidine incorporation(CPM) ([1]; μM: 1) | Thymidine incorporation(CPM) ([1]; μM: 2) | Thymidine incorporation(CPM) ([1]; μM: 3) | Thymidine incorporation(CPM) ([1]; μM: −1) | Thymidine incorporation(CPM) ([1]; μM: −2) | Thymidine incorporation(CPM) ([1]; μM: −3) | Luciferase RLU (T cell viability) (activated T cells; μM: 0) [RLU] | Luciferase RLU (T cell viability) (activated T cells; μM: 1) [RLU] | Luciferase RLU (T cell viability) (activated T cells; μM: 2) [RLU] | Luciferase RLU (T cell viability) (activated T cells; μM: 3) [RLU] | Luciferase RLU (T cell viability) (activated T cells; μM: −1) [RLU] | Luciferase RLU (T cell viability) (activated T cells; μM: −2) [RLU] | Luciferase RLU (T cell viability) (activated T cells; μM: −3) [RLU] | further results
1 | C[C@H]1Oc2cc(cnc2N)-c2c(nn(C)c2C#N)CN(C)C(=O)c2ccc(F)cc21 [PF-06463922, (10R)-7-amino-12-fluoro-2,10,16-trimethyl-15-oxo-10,15,16,17-tetrahydro-2H-8,4-(metheno)pyrazolo[4,3-h][2,5,11]benzoxadiazacyclotetradecine-3-carbonitrile] | 399866.7 ± 10135.82 | 364978.7 ± 37421.4 CPM | 258875.3 ± 25269.1 | 94120.66 ± 2728.719 CPM | 416579.3 ± 23523.21 | 411422.3 ± 13377.95 | 401448.3 ± 37205.07 | 88.53 ± 0.7567 | 89.118 ± 1.283 | 88.6231 ± 1.573 | 40.36 ± 9.736 | 97.8625 ± 2.288 | 95.86 ± 0.6202 | 98.17 ± 0.6606 | Average tumor volume (CT26 colon carcinoma; Day 5): 181.85 ± 12.6828 mm^3; Average tumor volume (CT26 colon carcinoma; Day 9): 253.14 ± 34.78 mm^3; Average tumor volume (CT26 colon carcinoma; Day 14): 548.44 ± 96.03 mm^3; Average tumor volume (CT26 colon carcinoma; Day 17): 962.02 ± 180.1961 mm^3; Average tumor volume (CT26 colon carcinoma; Day 21): 1696.96 ± 285.9975 mm^3; tumor growth inhibition (TGI) (CT26 colon carcinoma; day 21 post tumor inoculation, relative to the isotype control): 28.3%; Effect on CT26 tumor growth (CT26 colon carcinoma): partially effective; Effect on CT26 tumor growth (CT26 colon carcinoma; listed as ALK inhibitor): did not consistently inhibit CT26 tumor growth; Effect on T cell proliferation ([1]; activated T cells, FIG. 1A): did not have adverse effects on T cell proliferation; Effect on T cell viability (activated T cells; FIG. 1B): did not result in dose-dependent decreases in T cell viability; animals with a complete response (tumor free) (B16 skin melanoma): no animals having a complete response
2 | CNC(=O)c1ccccc1Sc1ccc2c(/C=C/c3ccccn3)n[nH]c2c1 [Axitinib, axitinib] | 437978 ± 5214.787 | 385672.3 ± 9004.015^ CPM | 300379.3 ± 25594 | 291128.7 ± 31076.09^ CPM | 407235 ± 52888.48 | 408592.3 ± 11690 | 394950 ± 19054.05 | 92.63 ± 0.5221 | 89.79 ± 1.428 | 86.63 ± 0.8779 | 78.81 ± 3.223 | 91.35 ± 1.526 | 95.54 ± 3.15 | 97.36 ± 1.186 | Toxicity in peripheral blood mononuclear cells [2]: only minor toxicity effects

From patent publication US20180282415A1, “Combination of a PD-1 Axis Binding Antagonist and an ALK Inhibitor for Treating ALK-Negative Cancer” (Merck Patent GmbH, priority 2015, published 2018)
